Measurements: publication PMC3929365, “Benzimidazoisoquinolines: A New Class of Rapidly Metabolized Aryl Hydrocarbon Receptor (AhR) Ligands that Induce AhR-Dependent Tregs and Prevent Murine Graft-Versus-Host Disease” (PLoS ONE, 2014)
Values joined by “and” are separate entries in the source; they are usually repeats but may differ in a detail not shown here. Equal entries are not always repeated.

Columns and labels:
AhR [1] = assay: AhR-regulated (XRE) luciferase reporter gene assay in Hepa-1 cells; assay type: cell-based, mouse; settings: 10 nM, 12 h, Hepa1 cells, XRE-luciferase reporter
Protocol: Figure 1 10-Cl-BBQ is a potent AhR ligand. A) Structure of 10-Cl-BBQ. […] C) Hepa-1 cells expressing endogenous AhR were transfected with an AhR-regulated luciferase reporter gene (xenobiotic responsive element (XRE)-MMTVpromoter-Luc) and the reporter gene activity was measured after 12 h of treatment with 1 nM TCDD or the indicated concentrations of 10-Cl-BBQ. D) Alteration in proteolytic pattern of AhR by 10-Cl-BBQ. Whole cell lysate (45 µg of protein) from mouse hepatoma Hepa1c1c7 cells was incubated with 100 nM 10-Cl-BBQ or 0.1% DMSO for 1 h at RT and proteolyzed by 1 µg/ml subtilisin for 1, 2, 4, and 8 min at RT. Proteolytic cleavage products of AhR were analyzed by immunoblot. E) Electrophoretic mobility shift assay showing the ligand-stimulated binding of AhR to XRE. Whole cell lysate (18 µg of protein) from mouse hepatoma Hepa1c1c7 cells was incubated with 10 nM 10-Cl-BBQ or 0.1% DMSO for 2 h at room temperature and ^32P-labeled oligonucleotide containing XRE for 20 min at room temperature. The samples were electrophoresed on a native polyacrylamide gel and the signal was visualized by Phosphor Imager. Unlabeled competitor XRE or antibody (Ab) against AhR or Arnt was co-incubated with ^32P-labeled oligonucleotide.
The mean luciferase activity is shown with SEM. […] 3-MC binding to AhR.

AhR [2] = system: AhR
Protocol: The AhR reporter gene assay was performed as previously described (20–22).
B) Hepa1 cells expressing endogenous AhR were transfected with a XRE-luciferase reporter gene. […] The mean luciferase activity is shown with SEM. C) Dose response curves for the competitive inhibition of [^3H] 3-MC binding to AhR.
3-methylcholanthrene (3-MC) to AhR (Fig. 5C).

donor CD4+ T cells = assay: AhR-Treg phenotype of alloactivated donor CD4+ T cells 48 h after initiating the GVH response; assay type: in vivo, B6D2F1 host mice; settings: 10 mg/kg i.p. day 0 and day 1, analysed day 2, vs vehicle
Protocol: Splenocytes and lymphocytes were harvested from C57Bl/6 mice. In some experiments, T cells were purified by negative selection using a Pan-T kit (Miltenyi Biotec) and stained with 2 µM carboxyfluorescein succinimidyl ester (CFSE) (Life Technologies). At least 2×10^7 purified T cells or approximately 1×10^8 pooled splenocytes and lymphocytes were injected i.v. into B6D2F1 host mice to initiate the GVH response. GVHD pathology was assessed on a scale of 0 to 3 (0 = normal, 1 = moderate morbidity, 2 = severe morbidity, 3 = death) according to the following five criteria: weight-loss, posture, activity, fur texture and death and reported as a Clinical GVHD Score.
Host mice were treated daily with vehicle, 10-Cl-BBQ or BBQ analogues by i.p. injection. The vehicle consisted of a mixture of 6.7% anisole and peanut oil. Mice treated with a single i.p. dose of 15 µg TCDD/kg body weight in the same vehicle were used as positive controls.
Antibodies to CTLA-4, Foxp3, ICOS, CD62L, CD25, CD19, CD44) and a fixable viability dye were purchased from eBiosciences. Additional antibody reagents included CD4 and CD8 (Life Technologies); H-2D^d (Biolegend) and CD45RB (PharMingen). After surface staining, the cells were fixed and permeabilized with Cytofix/cytoperm (BD Biosciences) for intracellular CTLA-4 stain. The flow cytometry data were acquired on an FC500 instrument (Beckman Coulter) and the data were analyzed using WinList 7.0 (Verity Software House). Fluorescence minus one (FMO) controls were used for setting histogram gates during the analysis.
Figure 3 10-Cl-BBQ induces an AhR-dependent Treg phenotype 48 h after initiating the GVH response. On day 0, B6D2F1 host mice in groups of 5 were injected with CFSE-labeled C57Bl/6 T cells and given 15 mg/kg 10-Cl-BBQ, 15 µg/kg TCDD or vehicle by i.p. injection. At 24 h, an additional dose of 7 mg/kg 10-Cl-BBQ or vehicle was given. […] Treatment mean ± SEM is shown in the quadrant of interest. […] C) AhR-dependent induction of the donor Treg phenotype by 10-Cl-BBQ. On day 0, B6D2F1 host mice in groups of 5 were injected with donor T cells obtained from AhR^+/+ or AhR^−/− C57Bl/6 mice. Host mice were treated with 2 mg/kg10-Cl-BBQ or vehicle immediately following donor cell transfer and again at 24 hr. […] D) Dose-dependent induction of Treg phenotype by 10-Cl-BBQ. On day 0, B6D2F1 host mice in groups of 3–5 were injected with C57Bl/6 T cells. Mice were immediately treated with 0, 0.4, 2 or 10 mg/kg 10-Cl-BBQ and again on day 1. On day 2, expression of markers associated with the AhR-Treg phenotype increased as the dose of 10-Cl-BBQ increased. E) In the same mice as in D, lymph nodes were harvested and analyzed for expression of genes that were previously shown to increase under the same GVH conditions with TCDD treatment (13). […] Changes in gene expression were calculated relative to the β-actin gene, and the fold-induction was calculated by the ΔΔCt method using the vehicle-treated samples as a control. * = p<0.05 relative to vehicle treatment. […]

AhR [3] = system: AhR; set-up: method as in PMID 18755850; settings: MCF-7 cells and human macrophages; cited from earlier work
CaMKK = system: CaMKK; set-up: method as in PMID 11867640; settings: cited from earlier work

Molecule | activation of AhR (AhR-regulated reporter gene activity) (AhR [1]) | IC50 (AhR [2]) | percentage of alloresponsive donor CD4+ T cells expressing CD25 with AhR-Treg markers ICOS, CD62Llow and CTLA-4 (donor CD4+ T cells) | concentration at which AhR activation occurred (AhR [3]) [µM] | concentration known to fully inhibit CaMKK (CaMKK) [µM]
11-Chloro-8H-benzimidazo[2,1-a]phenanthro[3,4,5-defg]isoquinolin-8-one [analogue 3] | 2 fold | – | – | – | –
Clc1cc2c(cc1Cl)Oc1cc(Cl)c(Cl)cc1O2 [TCDD, 2,3,7,8-tetrachlorodibenzo-p-dioxin, reference compound] | – | 0.0047 µM | – | – | –
O=c1c2cccc3cccc(c32)c2nc3ccccc3n12 [analogue 1, 7H-Benzimidazo[2,1-a]benzo[de]isoquinolin-7-one] | 13 fold | 0.0137 µM | significantly increased | – | –
NN1C(=O)c2ccc3c(=O)n4c5ccc(Cl)cc5nc4c4ccc(c2c34)C1=O [analogue 2, 2-Amino-10-chlorobenzimidazo[2,1-b]benzo[lmn][3,8]phenanthroline-1,3,6(2H)-trione] | did not induce reporter activity | – | – | – | –
O=c1c2ccc(Cl)c3cccc(c32)c2nc3cc(Cl)ccc3n12 [analogue 4, 4,11-Dichloro-7H-benzimidazo[2,1-a]benzo[de]isoquinolin-7-one] | 19 fold | 0.0052 µM | significantly increased | – | –
O=C(O)c1ccc2c3c1cccc3c(=O)n1c3ccccc3nc21 [analogue 5, 7-Oxo-7H-benzimidazo[2,1-a]benzo[de]isoquinoline-3-carboxylic acid, reference compound] | did not induce reporter activity | 45.2 µM and 45 µM | – | 25 | 25
